Measured values from patent publication US12458660B2, “Methods of attenuating an immune response by inhibition of BFL1” (CHILDREN'S HOSPITAL MEDICAL CENTER, priority 2018, dated 2025).
Read-outs that look alike come from different tables or passages of the source. Blank lines part the entries; values can stand above or below the compound they belong to.

Experiments:
[1] = tested on: chorio-decidua neutrophils; test: Chorio-decidua neutrophil survival in culture (Annexin V-/7aad- by flow cytometry); assay type: cell-based, Rhesus
Description: Importantly, Bcl2A1 was specifically expressed by CD neutrophils, and rhIL1ra decreased BCL2A1+ neutrophils (FIG. 9B). Neutrophil expression of Bcl2A1 could be constitutive or induced. Since control CAD tissue have very few neutrophils, we compared expression of Bcl2A1 and other important mediators of apoptosis in CD neutrophils vs. blood neutrophils from the same IA LPS-exposed animals.
Neutrophils were cultured overnight (16 h) at 37° C., in 5% CO2 in DMEM:F12 containing 10% fetal bovine serum, 100 IU/ml penicillin, 100 IU/ml streptomycin, and 2 mmol/L glutamine, in 24-well plate ([…] were stained with a cocktail of Abs as above for immunophenotyping and analyzed by flow cytometry within 30 minutes and cell survival was indicated as percentage of Annexin V^−/7aad^− cells (BD Bioscience).
The chosen doses were optimum based on dose response curves that were generated using blood neutrophils. ABT737 concentrations≥1 μM were toxic to the cells (not shown).

[2] = molecular target: T1, BCL2A1 (A1) - NOXA binding (Mus musculus, UniProt Q07440, C113S/P104K); test: Competition fluorescence polarization assay, displacement of FITC-labeled mNOXA peptide from A1; conditions: for additivity for inhibition of A1-Noxa binding, checkerboard assay: NSC-97318 (P2) with NSC-45195 (P4), wide range of concentrations; for inhibition of NOXA binding in combination: with NSC-15508
T1 construct: A1 residues 1-152 (P104K, C113S) were expressed in the BL21 strain of Escherichia coli; hexa-His-MBP (cleaved yes); made in house; host or cells: Escherichia coli BL21
T1 sequence (Q07440 1-152 P104K/C113S): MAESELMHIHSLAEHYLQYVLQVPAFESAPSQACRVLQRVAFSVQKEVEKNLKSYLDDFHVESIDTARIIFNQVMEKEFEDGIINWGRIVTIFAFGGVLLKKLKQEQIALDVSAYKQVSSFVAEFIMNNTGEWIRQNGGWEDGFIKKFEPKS
Description: Representative compounds were additionally tested for inhibition of BH3 binding through competition-based fluorescence polarization (FP) assays. These assays were carried out using fluorescently labeled NOXA peptide which binds within the BH3-binding groove. The FP assay measures the tumbling rate of the labeled NOXA peptide. When NOXA is bound to A1, its rate of tumbling is low (and FP is high), whereas an effective inhibitor compound will displace NOXA, causing a fast rate of tumbling (and low FP value). Initially, a single high-dose experiment was performed with each compound using 100 μM of compound with BCL2A1 and FITC-NOXA, to observe the relative inhibition of the A1-NOXA interaction (FIG. 17B).
These compounds and any that were three standard deviations or more above the thermal shift controls in the DSF assays, along with those that were initially derived from early compounds with reasonable IC50 values, were tested in a dose-response experiment. To this end, 30 putative P2 inhibitors and 44 putative P4 inhibitors had their IC50 values determined. Of the dose responses, there was a surprising enrichment of putative P4 inhibitors among those that had IC50 values less than 50 μM. […] The following linear equation was used in the calculations (Tallarida et al., 2011),
Compounds were additionally tested for specificity of binding by displacement of FITC-labeled mouse NOXA (mNoxa; Peptide 2.0) peptide via fluorescence polarization assay (FP). FP assays were performed in two steps: single-point high-concentration compounds and dose response of fluorescence polarization hits. A1 was added at 3 μM to 100 μM of each compound in 20 mM Tris pH 7, 500 mM NaCl, 0.005% Tween-20 buffer. After addition of 375 nM labeled mNOXA, 96-well plates were incubated overnight at 20° C. in the dark to achieve equilibrium before fluorescence polarization was measured with a Biotek Synergy H2. Autofluorescent compounds and fluorescent quenching compounds were corrected via ratiometric correction as described by Shapiro et al., 2009.
Dose response curves were measured by adding 3 μM A1 to a serial two-fold dilution series of each compound ranging from 400 μM to 781 nM in 20 mM Tris pH 7, 500 mM NaCl, 0.005% Tween-20 buffer. Some compounds were further tested to assess the accuracy of these two-fold dilutions with serial 1.33-fold dilutions. A1, compounds, buffer and lastly, 375 nM FITC-labeled mNOXA were added to each well and incubated in the dark at 20° C. overnight to achieve equilibrium, followed by measurement of polarization. All dose responses were performed in triplicate.

primary splenocyte cells = test: In vitro apoptosis assay in activated primary splenocyte cells (trypan blue); assay type: cell-based, mice; conditions: WT and Bax/Bak-/- splenocytes, +/- polybrene
Description: An in vitro apoptosis assay utilizing primary splenocyte cells was used as a model system. In this system, compounds were added to wild-type primary splenocyte cells from mice that had been cultured and activated over four days. […] Mice deficient in Bax/Bak are unable to undergo intrinsic apoptosis due to the lack of the executioners in the pathway. […] Polybrene™ (hexadimethrine bromide) is a transfection reagent used to assist negatively-charged DNA molecules in traversal of the plasma membrane. Polybrene was included here to test whether it would improve the activity of negatively charged compounds.
Single-cell suspensions from spleen were generated by maceration through a 100 μm nylon mesh followed by LympholyteM ficoll gradient separation (Cedarlane Labs, Burlington, NC). Purified cells were then cultured on anti-CD3 coated (3 μg/mL, coated overnight, Biolegend, San Diego, CA) six-well plates in the presence of soluble anti-CD28 (2 μg/mL, Bio X Cell, West Lebanon, NH) and IL-2 (10 ng/mL, R&D Systems, Inc., Minneapolis, MN) in RPMI media (Life Technologies, Carlsbad, CA) for 24 hours at 37° C. Cells were then washed and cultured again in IL-2 (10 ng/mL) for 24 hours at 37° C. […]

[3] = Anakinra (rhIL-1ra) pharmacokinetics in pregnant Rhesus macaques, human IL-1ra ELISA; assay type: in vivo, Rhesus macaques (Macaca mulatta)
Description: Recombinant human IL-1 receptor antagonist (“Anakinra” or “rhIL 1ra”) was injected into the amniotic fluid (“AF”) and subcutaneously in the dams (FIG. 3A). […] The low (0.2%) diffusion of Anakinra from maternal blood to amniotic fluid 2 h after maternal subcutaneous (SC) before the AF Anakinra dosing is notable. In addition, a slower clearance of Anakinra from the AF compared to maternal plasma is observed.
(§1) All animal procedures were approved by the Institutional Animal Care and Use Committee at the University of California, Davis. Normally cycling, adult female rhesus macaques (Macaca mulatta) (n=43) were time mated. At ˜130 d of gestation (˜80% of term gestation), the pregnant rhesus received either 1 ml saline solution (n=16) or 1 mg LPS (Sigma-Aldrich, St. Louis, MO) in 1 ml saline solution by ultrasound-guided IA injection. Dams were surgically delivered 16 h (n=13) or 48 h (n=8) later. Multiparous macaques and their fetuses were similar in demographics (Table 4). After delivery, fetuses were euthanized with pentobarbital, and fetal tissues were collected. There were no spontaneous deaths or preterm labor in the animals. IL-1 signaling was blocked by recombinant human IL-1R antagonist (rhIL-1RA; Anakinra Sobi, Stockholm, Sweden) given to the pregnant monkey IA (50 mg) and subcutaneous (100 mg) 1 and 3 h before LPS, as previously described (Rueda et al., 2016; FIG. 3).
Cytokine/chemokine concentrations in AF, fetal, and maternal plasma were determined by Luminex using non-human primate multiplex kits (Millipore). Lipids were extracted from the AF using methanol to measure Prostaglandins PGE2 (Oxford Biomedical Research, Oxford, MI) and PGF2a (Cayman Chemical, Ann Arbor, MI) concentrations. Anakinra (rhIL1ra) levels in AF, fetal, and maternal plasma were determined by human IL1ra/IL-1F3 Quantikine ELISA kit (R&D System, Minneapolis, […]). This kit has low cross-reactivity to Rhesus IL-1ra.

[4] = tested on: IA LPS-induced chorioamnionitis (IL-1 signaling); test: LPS-induced chorioamnionitis Rhesus monkey model with IL-1R blockade; assay type: in vivo, Rhesus macaques (Macaca mulatta)
Source text: We utilized the LPS-induced chorioamnionitis Rhesus monkey model system to study the pathogenesis of IUI, and particularly the role of IL-1 signaling in chorioamnionitis. A human recombinant IL-1 receptor antagonist (referred to herein as “hIL-lra” or by its generic name, “anakinra”) which inhibits both IL-1β and IL-lα signaling was used to experimentally block IL-1 signaling.
as §1
Both Rhesus and human purified decidua cell suspensions were prepared as previously described (Presicce et al., 2015). Briefly, extra-placental membranes were dissected away from the placenta. Decidua cells were scraped from the amnion-chorion. Amnion was then separated from chorion and flash-frozen for protein and RNA studies. Decidua tissue was washed, and digested with Dispase II (Life Technologies, Grand Island, NY) plus collagenase A (Roche, Indianapolis, IN) for 30 min followed by DNase I (Roche) treatment for another 30 min. Cell suspensions were filtered subjected to Red blood cell lysis and prepared for flow cytometry. Viability was >90% by trypan blue exclusion test.
Commercially available monoclonal antibodies (mAbs) were used for multiparameter flow cytometry (LSR Fortessa 2, BD Biosciences, San Diego, CA) and immunophenotyping was done on fresh chorio-decidua cell suspensions, except for T-cell phenotyping, which was done on cultured cells since cell isolation procedure down-regulates CD4/8 expression. Chorio-decidua cell TNFα expression was measured by flow cytometry with anti-TNF Ab (Cytofix/Cytoperm; BD Bioscience). To measure cytokine expression induced by in vivo exposures, flow cytometry was done on cells immediately after isolation without any stimulation and/or intracellular blockers. For all protocols, cells were treated with […] human immunoglobulin G (IgG) to block Fc receptors, stained for surface markers for 30 min at 4° C. in PBS, washed, and fixed in fixative stabilizing buffer (BD Bioscience). All antibodies were titrated for optimal detection of positive populations and mean fluorescence intensity. At least 500,000 events were recorded for each sample. Doublets were excluded based on forward scatter properties, and dead cells were excluded using LIVE/DEAD Fixable Aqua dead cell stain (Life Technologies). Unstained and negative biological population were used to determine positive staining for each marker. Data were analyzed using FlowJo version 9.5.2 software (TreeStar Inc., Ashland, OR).
Immunofluorescence was performed as previously described (Presicce et al., 2015). Briefly, paraffin embedded Rhesus fetal membrane sections were sectioned, subjected to antigen-retrieval by microwave boiling in citrate buffer followed by incubation with either anti-human CXCL8 (product G265-8; 1:25 dilution; BD Biosciences), or BCL2A1 (product b450; 1:50 dilution; LSBio, Seattle, WA), in 10% normal horse serum/0.2% Tween-20 at 4° C. overnight. […]

Compound: CN(C)CC[C@H](CSc1ccccc1)Nc1ccc(S(=O)(=O)NC(=O)c2ccc(N3CCN(Cc4ccccc4-c4ccc(Cl)cc4)CC3)cc2)cc1[N+](=O)[O-] [ABT-737]
frequency of chorio-decidua Annexin V-/7aad- (non-apoptotic) neutrophils ([1]; 0.1 µM, cultured 16 hr): did not show any significant effect
concentrations toxic to the cells ([1]; dose response curves generated using blood neutrophils, not shown): ≥ 1000 nM

Compound: Cc1ccc(NC(=O)c2cc3ccccc3c(/N=N/c3cc(S(=O)(=O)O)ccc3O)c2O)c(C)c1 [Compound 1.001]
inhibition of Noxa binding in FP assays [2]: strong inhibition
additivity for inhibition of A1-Noxa binding, checkerboard assay [2]: low level additivity
effect on cell survival (primary splenocyte cells): some effect

Compound: rhIL1ra: human recombinant IL-1 receptor antagonist which inhibits both IL-1β and IL-1α signaling
diffusion from maternal blood to amniotic fluid ([3]; 2 h after maternal subcutaneous dose, before AF dosing): 0.2%
transfer to fetal plasma ([3]; 19 h level, trans-placental transfer): substantial transfer
elimination in the AF compared to maternal blood ([3]; amniotic fluid vs maternal blood): slower
concentrations in AF and maternal blood ([3]; both compartments): therapeutic concentrations
LPS induced amniotic fluid concentration of PGE2 ([4]; ELISA of lipid extract): decreased
LPS-induced pIRAK1 in the amnion ([4]; IA LPS 16 h, immunoblot): decreased
expression of CSF3 in the amnion ([4]; IA LPS 16 h, mRNA): decreased
expression of CXCL8 in the amnion ([4]; IA LPS 16 h, mRNA): decreased
expression of IL6 in the amnion ([4]; IA LPS 16 h, mRNA): decreased
number (counts) of chorio-decidua neutrophils ([4]; IA LPS, FIG. 5B): to near controls levels
reduction of chorio-decidua neutrophil numbers ([4]; IA LPS, blocking IL-1R): ~90%
overall CD leukocyte counts ([4]; IA LPS, data not shown): decreased
CD16 expression in CD neutrophils ([4]; IA LPS, flow cytometry): to near control levels
CD63 expression in CD neutrophils ([4]; IA LPS, flow cytometry): to near control levels
chorio-decidua B-cell numbers ([4]; IA LPS, flow cytometry): to control levels
frequency of TNFα+ CD neutrophils ([4]; IA LPS, flow cytometry): reversed
neutrophil accumulation in the CD ([4]; IA LPS, flow cytometry): reversed
CAD expression of Bcl2A1 ([4]; LPS-exposed animals, quantitative PCR): reversed
BCL2A1+ neutrophils ([4]; chorio-decidua interface, cell count/HPF): decreased
IA LPS induced CD neutrophils expressing CXCL8 ([4]; immuno-histology): decreased
LPS induced amniotic fluid concentration of CXCL8 ([4]; multiplex ELISA): decreased
LPS induced amniotic fluid concentration of IL6 ([4]; multiplex ELISA): decreased
LPS induced amniotic fluid concentration of MCP1 ([4]; multiplex ELISA): decreased

The next lines start with results.

IC50 ([2]; P4 inhibitor 79711 in combination with P2 inhibitor 97318, read-out: IC50 upon P2 and P4 ligand binding): 6.3 µM
IC50 ([2]; compound alone, inhibition of A1-NOXA binding, read-out: IC50): 17.1 µM
Compound: Cc1cc(N)ccc1/N=N/c1ccc(/N=N/c2ccc3cc(S(=O)(=O)O)cc(S(=O)(=O)O)c3c2)c(C)c1 [Compound 1.002]

additivity for inhibition of A1-Noxa binding, checkerboard assay [2]: low level additivity
inhibition of NOXA binding in combination [2]: cooperative inhibition
Compound: Cc1cc(O)ccc1/N=N/c1ccc2cc(S(=O)(=O)O)cc(S(=O)(=O)O)c2c1 [Compound 1.003]

inhibition of NOXA binding in combination [2]: cooperative inhibition
Compound: Cc1cc(/N=N/c2ccc(/N=N/c3c(O)c(S(=O)(=O)O)cc4cc(S(=O)(=O)O)ccc34)cc2C)ccc1/N=N/c1ccc2cc(S(=O)(=O)O)cc(S(=O)(=O)O)c2c1 [Compound 1.004]
increase in inhibition relative to NSC-45195 ([2]; SAR comparison): roughly a two-fold increase in inhibition
